Test results published in US10077269B2, “Imidazopyridazine compounds” (Pfizer Inc., priority 2014, dated 2018).

Biological target: Human PDE4D FL (Homo sapiens (Human), UniProt Q08499)
Assay: PDE4D3 Scintillation Proximity Assay (SPA), inhibition of enzyme activity
Type: biochemical
Conditions: geometric mean of 2-9 determinations unless otherwise indicated; 1 μM cAMP, 30 min at 25° C.

Sequence of Human PDE4D FL (Q08499 186-808): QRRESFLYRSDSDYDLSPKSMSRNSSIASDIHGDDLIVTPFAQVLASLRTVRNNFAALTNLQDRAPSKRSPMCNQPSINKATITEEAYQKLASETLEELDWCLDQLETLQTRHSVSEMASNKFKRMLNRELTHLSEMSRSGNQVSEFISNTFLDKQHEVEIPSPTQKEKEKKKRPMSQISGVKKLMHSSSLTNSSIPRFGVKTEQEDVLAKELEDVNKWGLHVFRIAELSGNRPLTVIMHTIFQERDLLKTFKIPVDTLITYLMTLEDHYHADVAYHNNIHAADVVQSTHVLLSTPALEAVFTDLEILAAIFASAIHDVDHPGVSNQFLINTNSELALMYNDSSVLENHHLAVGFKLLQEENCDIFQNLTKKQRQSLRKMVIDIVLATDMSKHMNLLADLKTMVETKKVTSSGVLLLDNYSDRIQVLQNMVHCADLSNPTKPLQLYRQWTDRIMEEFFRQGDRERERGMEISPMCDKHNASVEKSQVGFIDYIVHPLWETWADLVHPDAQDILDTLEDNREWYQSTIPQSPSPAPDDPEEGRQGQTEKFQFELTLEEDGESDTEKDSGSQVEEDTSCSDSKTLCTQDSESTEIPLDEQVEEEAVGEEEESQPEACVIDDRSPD

IC50 [µM] | Structure (SMILES)
> 26.2 | COC1CN(C(=O)c2nc3cccnn3c2-c2ccc(Cl)cc2)C1 [Example 31, [3-(4-chlorophenyl)imidazo[1,2-b]pyridazin-2-yl](3-methoxyazetidin-1-yl)methanone]
> 12.2 | O=C(NC1CC1)c1nc2cccnn2c1-c1ccnc(C(F)(F)F)c1 [Example 42, N-cyclopropyl-3-[2-(trifluoromethyl)pyridin-4-yl]imidazo[1,2-b]pyridazine-2-carboxamide]
